“Also recorded” adds a separate entry of the source.
What was measured:
LNCaP xenograft tumors [1] = assay: Tumor cell proliferation (Ki67 staining); type: in vivo, SCID mice
Procedure: (§1) Immunofluorescence. Tumor samples frozen in OCT were sectioned (3-20 μm thick), mounted on Superfrost slides (ThermoFisher Scientific, Waltham, Mass.), and air-dried for 30 min. Sections were then fixed using cold acetone (5 min), followed by 1:1 acetone:chloroform (5 min), and then acetone (5 min) or by using 4% PFA at room temp (30 min) followed by 0.025% PBS/Triton X-100 (5 min) to permeabilize the cells. Sections were washed with cold PBS 3× for 5 min each and were incubated in a protein blocking solution of PBS/Tween (0.1%) with 5% bovine serum albumin (BSA; Sigma) at room temp (30 min) and were then washed in cold PBS 3× for 5 min each. The appropriate primary antibodies diluted 1:200-1:1000 in blocking solution were incubated with the sections overnight at 4° C. Sections were washed 3× for 5 min in cold PBS, and incubated in blocking solution (10 min). The sections were then incubated with the appropriate fluorescent secondary reporter antibodies diluted 1:500-1:5000 in blocking solution at room temp (30 min) followed by washing 3× in PBS. Nuclei were counter-stained with DAPI. Double staining of CD31 with TSP-1 and CD31 with SMA were performed sequentially as described above. Blood vessel analysis was done using IPLab software (BD Biosciences Bioimaging, Rockville, Md.) as previously described (Bielenberg, D. R., Hida, Y., Shimizu, A., Kaipainen, A., Kreuter, M., Kim, C. C., and Klagsbrun, M. 2004. Semaphorin 3F, a chemorepulsant for endothelial cells, induces a poorly vascularized, encapsulated, nonmetastatic tumor phenotype. J Clin Invest 114:1260-1271). Thombospndin-1 (TSP-1) analysis was done using the outline spline in AxioVision 4.0 software. Ki67 positive cells and nuclei were quantified using AxioVision 4.0 software.

serum cholesterol = assay: Serum cholesterol levels in diet/ezetimibe SCID mouse cohorts (Infinity colorimetric assay); type: in vivo, SCID mice; conditions: ezetimibe 30 mg/kg/d, 4 weeks, both LFNC and HFHC diet groups, drug F=23.48, p<0.001
Procedure: Mice and Tumor Xenografts. 5 week old SCID mice were obtained from the Massachusetts General Hospital and were fed a low fat/no cholesterol diet (LFNC) (Research Diets, New Brunswick, N.J. diet # D12102) for two weeks, blood was drawn from the saphenous tail vein and the serum cholesterol concentration was determined using the Infinity Cholesterol Liquid Stable Reagent (Thermo Electron Corp.). For intact (non-castrated) mice, the animals were divided into the high fat/high cholesterol diet (HFHC) (Research Diets, diet # D12108) and LFNC groups with and without ezetimibe (30 mg/kg/day; Schering-Plough, New Brunswick, N.J.) and the mice continued on these diets for four weeks. For castrated mice, the mice were divided into 4 groups, 2 groups were castrated, and 2 groups were left intact. […] Tumors were measured daily from the initiation of the first palpable tumors and the mice sacrificed prior to reaching the maximum tumor burden (13-23 days post implantation). Terminal bleeds were taken (Cardiac puncture) for serology (triglyceride, bilirubin and other liver function tests were performed in the Dept. of Laboratory Medicine, Children's Hospital Boston, androgen levels were determined by a testosterone EIA, Diagnostic Systems Laboratories, Webster, Tex.). Tumors were removed, measured, weighed and either placed in OCT solution (Tissue-Tek, Torrance, Calif.) or snap frozen. […]

LNCaP xenograft tumors [2] = assay: Tumor hemoglobin quantification; type: in vivo, SCID mice; conditions: n=20
Procedure: Hemoglobin Assay. Tumors were finely minced in 1 ml of fresh PBS on ice. The minced tissue suspensions were centrifuged at 10,000 g at 4° C. (2 min) and the supernatant was removed. The optical density (OD) of the clarified supernatants was read at 650 nm (background) and 530 nm (hemoglobin) using a spectrophotometer (Boyle, M. D., and Ohanian, S. H. 1980. Evidence for the influence of the initial complement components on the assembly and activity of the membrane attack complex. J Immunol 124:2824-2827; Gee, A. P., Boyle, M. D., and Borsos, T. 1980. Distinction between C8-mediated and C8/C9-mediated hemolysis on the basis of independent 86Rb and hemoglobin release. J Immunol 124:1905-1910).

VEGF or bFGF = VEGF or bFGF expression in the cohorts; type: in vivo, SCID mice; conditions: between the diet/drug cohorts, data not shown
[3] = tested on: LNCaP human prostate tumor xenografts; assay: Growth of implanted LNCaP prostate tumor xenografts (volume, wet weight, take); type: in vivo, SCID mice
Procedure: (§2) Mice and Tumor Xenografts. 5 week old SCID mice were obtained from the Massachusetts General Hospital and were fed a low fat/no cholesterol diet (LFNC) (Research Diets, New Brunswick, N.J. diet # D12102) for two weeks, blood was drawn from the saphenous tail vein and the serum cholesterol concentration was determined using the Infinity Cholesterol Liquid Stable Reagent (Thermo Electron Corp.). For intact (non-castrated) mice, the animals were divided into the high fat/high cholesterol diet (HFHC) (Research Diets, diet # D12108) and LFNC groups with and without ezetimibe (30 mg/kg/day; Schering-Plough, New Brunswick, N.J.) and the mice continued on these diets for four weeks. For castrated mice, the mice were divided into 4 groups, 2 groups were castrated, and 2 groups were left intact. The mice were fed either the LFNC, or a low fat/high cholesterol diet (LFHC) (Research Diets, diet #D12104) for 80 days. Xenografts were initiated by injecting LNCaP (2×10^6 per site) with 1:1 volume of Matrigel (BD BioSciences, San Jose, Calif.) into the 4 dorsal quadrants of each mouse. In order to eliminate any injection bias, the mice were randomized prior to implantation and the implanter was blinded to which group each mouse was assigned. All animal procedures were done in compliance with Children's Hospital Boston's animal care and use policies. Tumors were measured daily from the initiation of the first palpable tumors and the mice sacrificed prior to reaching the maximum tumor burden (13-23 days post implantation). Terminal bleeds were taken (Cardiac puncture) for serology (triglyceride, bilirubin and other liver function tests were performed in the Dept. of Laboratory Medicine, Children's Hospital Boston, androgen levels were determined by a testosterone EIA, Diagnostic Systems Laboratories, Webster, Tex.). Tumors were removed, measured, weighed and either placed in OCT solution (Tissue-Tek, Torrance, Calif.) or snap frozen.
Following alteration of cholesterol levels, the mice from Example 3 were injected subcutaneously with 2×10^6 LNCaP cells in their flanks (4 tumors/mouse). Regimens were continued following implantation, and the experiment continued for 13 days following the initial appearance of tumors. Tumor volume was measured daily (FIG. 2B). […] The overall effect of diet and ezetimibe was independent and additive, not synergistic. […] Tumor take was >95% in all groups and no significant differences in tumor take were observed.

LNCaP xenograft tumors [4] = assay: Tumor cell apoptosis (TUNEL staining); type: in vivo, SCID mice; conditions: ezetimibe main effect p<0.0001, no synergy with diet (p=0.85)
Procedure: Apoptosis. Percentage of apoptotic cells in tumor sections was determined by TUNEL assay using the In Situ Cell Death Detection Kit (Roche Diagnostics Corp. Indianapolis, Ind.). Briefly, frozen tumor sections were fixed in 4% paraformaldehyde (PFA), permeabilized and the DNA stained with fluorescein following the manufacturer's instructions. Nuclei were counterstained with DAPI (Vector Labs, Burlingame, Calif.). Images were captured using a Zeiss microscope and the positive cells and nuclei were counted using Axiovision software 4.0.

[5] = Serology (triglyceride, liver function tests) and feeding observation; type: in vivo, SCID mice
Procedure: as §2

LNCaP xenograft tumors [6] = assay: Fibroblast staining of tumor sections; type: in vivo, SCID mice; conditions: HFHC condition, p=0.03, n=55/group
Procedure: as §1, with “Blood vessel analysis was done using IPLab software (BD Biosciences Bioimaging, Rockville, Md.) as previously described (Bielenberg, D. R., Hida, Y., Shimizu, A., Kaipainen, A., Kreuter, M., Kim, C. C., and Klagsbrun, M. 2004. Semaphorin 3F, a chemorepulsant for endothelial cells, induces a poorly vascularized, encapsulated, nonmetastatic tumor phenotype. J Clin Invest 114:1260-1271). Thombospndin-1 (TSP-1) analysis was done using the outline spline in AxioVision 4.0 software.” left out

LNCaP xenograft tumors [7] = assay: Pericyte coverage of microvessels (SMA staining); type: in vivo, SCID mice; conditions: ezetimibe groups, p<0.0001
Procedure: as §1, with “Blood vessel analysis was done using IPLab software (BD Biosciences Bioimaging, Rockville, Md.) as previously described (Bielenberg, D. R., Hida, Y., Shimizu, A., Kaipainen, A., Kreuter, M., Kim, C. C., and Klagsbrun, M. 2004. Semaphorin 3F, a chemorepulsant for endothelial cells, induces a poorly vascularized, encapsulated, nonmetastatic tumor phenotype. J Clin Invest 114:1260-1271). Thombospndin-1 (TSP-1) analysis was done using the outline spline in AxioVision 4.0 software.” left out

LNCaP xenograft tumors [8] = assay: Microvessel density (MVD), CD31 analysis; type: in vivo, SCID mice; conditions: ezetimibe p=0.013, larger effects with HFHC (p=0.01)
Procedure: as §1, with “Blood vessel analysis was done using IPLab software (BD Biosciences Bioimaging, Rockville, Md.) as previously described (Bielenberg, D. R., Hida, Y., Shimizu, A., Kaipainen, A., Kreuter, M., Kim, C. C., and Klagsbrun, M. 2004. Semaphorin 3F, a chemorepulsant for endothelial cells, induces a poorly vascularized, encapsulated, nonmetastatic tumor phenotype. J Clin Invest 114:1260-1271). Thombospndin-1 (TSP-1) analysis was done using the outline spline in AxioVision 4.0 software.” left out

LNCaP xenograft tumors [9] = assay: MVD, caveolin-1 analysis (immunoblotting and immunofluorescence); type: in vivo, SCID mice
Procedure: (§3) Immunofluorescence. Tumor samples frozen in OCT were sectioned (3-20 μm thick), mounted on Superfrost slides (ThermoFisher Scientific, Waltham, Mass.), and air-dried for 30 min. Sections were then fixed using cold acetone (5 min), followed by 1:1 acetone:chloroform (5 min), and then acetone (5 min) or by using 4% PFA at room temp (30 min) followed by 0.025% PBS/Triton X-100 (5 min) to permeabilize the cells. Sections were washed with cold PBS 3× for 5 min each and were incubated in a protein blocking solution of PBS/Tween (0.1%) with 5% bovine serum albumin (BSA; Sigma) at room temp (30 min) and were then washed in cold PBS 3× for 5 min each. The appropriate primary antibodies diluted 1:200-1:1000 in blocking solution were incubated with the sections overnight at 4° C. Sections were washed 3× for 5 min in cold PBS, and incubated in blocking solution (10 min). […] Ki67 positive cells and nuclei were quantified using AxioVision 4.0 software.
Lysates and Immunoblotting. […] Protein concentrations were determined by microBCA (Pierce/Thermo Scientific) and equal amounts of the lysates were subjected to SDS-PAGE and immunoblotting as described previously (Zhuang, L., Kim, J., Adam, R. M.-, Solomon, K. R., and Freeman, M. R. 2005. Cholesterol targeting alters lipid raft composition and cell survival in prostate cancer cells and xenografts. J Clin Invest 115:959-968).

thrombospondin-1 (TSP-1) = assay: Thrombospondin-1 (TSP-1) levels in tumor sections; type: in vivo, SCID mice; conditions: ezetimibe p<0.0001
Procedure: as §3, with “min). The sections were then incubated with the appropriate fluorescent secondary reporter antibodies diluted 1:500-1:5000 in blocking solution at room temp (30 min) followed by washing 3× in PBS. Nuclei were counter-stained with DAPI. Double staining of CD31 with TSP-1 and CD31 with SMA were performed sequentially as described above.” for “min).”

LNCaP xenograft tumors [10] = assay: Tumor membrane cholesterol analysis; type: in vivo, SCID mice; conditions: ezetimibe main effect p<0.0001, n=9/group
Procedure: Tumor cholesterol analysis. Tumors were finely minced in phosphate buffered saline (PBS) on ice and the level of cholesterol was determined as described previously (Boucher, K., Siegel, C. S., Sharma, P., Hauschka, P. V., and Solomon, K. R. 2006. HMG-CoA reductase inhibitors induce apoptosis in pericytes. Microvasc Res 71:91-102).

[11] = literature (Jurado 2004; Knopp 2003); cited from earlier work

SMILES: O=C1[C@H](CC[C@H](O)c2ccc(F)cc2)[C@@H](c2ccc(O)cc2)N1c1ccc(F)cc1 [ezetimibe]
- relative level of Ki67 staining (LNCaP xenograft tumors [1]; HFHC diet w/ezetimibe (HFHC alone 41.16)): 30.32 (95% CI; 26.96-33.68)
- relative level of Ki67 staining (LNCaP xenograft tumors [1]; LFNC diet w/ezetimibe (LFNC alone 28.78)): 25.57 (95% CI; 22.21-28.93)
- tumor cell proliferation (Ki67), effect in words (LNCaP xenograft tumors [1]; ezetimibe by diet interaction p=0.027, magnitude depends on the diet): significant effect on lowering proliferation
- serum cholesterol (serum cholesterol): significant effects
- serum cholesterol (serum cholesterol; listed as Ezetimibe): significant reductions
- relative hemoglobin/mg tumor tissue (LNCaP xenograft tumors [2]; HFHC+Z vs HFHC): statistical significance
- relative hemoglobin/mg tumor tissue (LNCaP xenograft tumors [2]; LFNC vs LFNC+Z): not statistically different
- VEGF or bFGF expression (VEGF or bFGF): no differences
- tumor wet weight at sacrifice ([3]; LFNC diet with drug, p=0.021 vs HFHC (0.88±0.71 g)): 0.63 ± 0.55 g
- tumor wet weight at sacrifice ([3]; LFNC+Z group, p=0.021 vs HFHC (0.88±0.71)): 0.63±0.55 average grams/tumor site
- tumor take ([3]; all diet/drug groups, no significant differences): > 95%
- tumor growth rates (tumor volume) ([3]; ezetimibe 30 mg/kg/day added to diet, 13 days from first appearance of tumors, p=0.035): Significantly reduced
- tumor cell apoptosis (relative level of TUNEL staining) (LNCaP xenograft tumors [4]): highly significant main effects; also recorded: significantly increased
- liver function (AST, ALP, bilirubin etc) ([5]; any mouse, all groups, data not shown): no liver dysfunction
- serum triglyceride levels ([5]; ezetimibe cohorts, data not shown): no significant reduction; also recorded: nor were triglyceride levels significantly reduced
- feeding behavior ([5]; observation, calorie intake 21.18 Kcal/d): did not alter feeding behavior
- relative level of fibroblast staining (LNCaP xenograft tumors [6]): statistically significant ezetimibe effect
- pericyte coverage of vessels (relative level of SMA staining) (LNCaP xenograft tumors [7]): highly significant main effects; also recorded: dramatically increased
- microvessel density (relative level of CD31 staining) (LNCaP xenograft tumors [8]): highly significant main effect; also recorded: significantly suppressed
- average caveolin-1 signal, immunoblotting (LNCaP xenograft tumors [9]; both diet conditions, p=0.027, n=6/group): significant drug effect in lowering caveolin
- relative level of caveolin-1 staining, immunofluorescence (LNCaP xenograft tumors [9]; ezetimibe p<0.0001, n=43/group): highly significant main effects
- TSP-1 levels in tumors (relative level of TSP-1 staining) (thrombospondin-1 (TSP-1)): highly significant main effects; also recorded: enhanced
- tumor cholesterol levels (membranes) (LNCaP xenograft tumors [10]): highly significant main effects; also recorded: independently affected
- triglyceride levels in humans [11]: modest effect

From patent US20090208448A1, “Inhibition of angiogenesis” (priority 2008, published 2009)
